Reference: ChEMBL document CHEMBL5380795, “Design, Synthesis, and Bioactivity Investigation of Cyclic Lipopeptide Antibiotics Containing Eight to Nine Amino Acids” (J Med Chem, 2023)
Converted amounts (≈) assume the structure as drawn. Bridge positions count the residues as written; N and C are the ends. Square brackets hold non-standard residues; d marks the D form. Peptide text beside a SMILES is read from it. * marks the point of attachment. Decanoyl(3R-OH) = CCCCCCC[C@@H](O)CC(=O)*; dDab = NCC[C@@H](N)C(=O)O; Dab = NCC[C@H](N)C(=O)O

Key:
[1] = test system: Escherichia coli; experiment: Antibacterial activity against Escherichia coli ATCC BAA-2523 assessed as inhibition of bacterial growth incubated for 18 to 24 hrs by broth microdilution method; type: functional; conditions: time 18-24 hrs
[2] = test system: Acinetobacter baumannii; experiment: Antibacterial activity against oxacillinase-27 producing Acinetobacter baumannii NCTC 13304 assessed as inhibition of bacterial growth incubated for 18 to 24 hrs by broth microdilution method; type: functional; conditions: time 18-24 hrs
[3] = Selectivity index, ratio of IC50 for cytotoxicity against human HK-2 cells to MIC for antibacterial activity against Escherichia coli ATCC BAA-2523; type: toxicity, cell-based
[4] = test system: Escherichia coli; experiment: Antibacterial activity against Escherichia coli NCTC 13353 assessed as inhibition of bacterial growth incubated for 18 to 24 hrs by broth microdilution method; type: functional; conditions: time 18-24 hrs
[5] = test system: Staphylococcus aureus; experiment: Antibacterial activity against methicillin resistant Staphylococcus aureus ATCC 33591 assessed as inhibition of bacterial growth incubated for 18 to 24 hrs by broth microdilution method; type: functional; conditions: time 18-24 hrs
[6] = test system: Klebsiella pneumoniae; experiment: Antibacterial activity against KPC producing Klebsiella pneumoniae ATCC BAA-1705 assessed as inhibition of bacterial growth incubated for 18 to 24 hrs by broth microdilution method; type: functional; conditions: time 18-24 hrs
[7] = test system: Staphylococcus epidermidis; experiment: Antibacterial activity against methicillin resistant Staphylococcus epidermidis clinical isolate 19-6 assessed as inhibition of bacterial growth incubated for 18 to 24 hrs by broth microdilution method; type: functional; conditions: time 18-24 hrs
[8] = test system: Klebsiella pneumoniae; experiment: Antibacterial activity against carbapenem resistant Klebsiella pneumoniae clinical isolate 19-15 assessed as inhibition of bacterial growth incubated for 18 to 24 hrs by broth microdilution method; type: functional; conditions: time 18-24 hrs
[9] = test system: Staphylococcus aureus; experiment: Antibacterial activity against Staphylococcus aureus ATCC 29213 assessed as inhibition of bacterial growth incubated for 18 to 24 hrs by broth microdilution method; type: functional; conditions: time 18-24 hrs
[10] = test system: Klebsiella pneumoniae; experiment: Antibacterial activity against carbapenem resistant Klebsiella pneumoniae clinical isolate 19-17 assessed as inhibition of bacterial growth incubated for 18 to 24 hrs by broth microdilution method; type: functional; conditions: time 18-24 hrs
[11] = Cytotoxicity against human HK-2 cells assessed as inhibition of cell growth incubated for 72 hrs by CCK-8 assay; type: toxicity, cell-based
[12] = test system: Escherichia coli; experiment: Antibacterial activity against KPC producing Escherichia coli ATCC BAA-2340 assessed as inhibition of bacterial growth incubated for 18 to 24 hrs by broth microdilution method; type: functional; conditions: time 18-24 hrs
[13] = test system: Pseudomonas aeruginosa; experiment: Antibacterial activity against carbapenem resistant Pseudomonas aeruginosa clinical isolate 19-3 assessed as inhibition of bacterial growth incubated for 18 to 24 hrs by broth microdilution method; type: functional; conditions: time 18-24 hrs
[14] = test system: Pseudomonas aeruginosa; experiment: Antibacterial activity against Pseudomonas aeruginosa ATCC 27853 assessed as inhibition of bacterial growth incubated for 18 to 24 hrs by broth microdilution method; type: functional; conditions: time 18-24 hrs
[15] = test system: Pseudomonas aeruginosa; experiment: Antibacterial activity against carbapenem resistant Pseudomonas aeruginosa clinical isolate 17-1 assessed as inhibition of bacterial growth incubated for 18 to 24 hrs by broth microdilution method; type: functional; conditions: time 18-24 hrs
[16] = test system: Acinetobacter baumannii; experiment: Antibacterial activity against carbapenem resistant Acinetobacter baumannii clinical isolate 19-8 assessed as inhibition of bacterial growth incubated for 18 to 24 hrs by broth microdilution method; type: functional; conditions: time 18-24 hrs
[17] = test system: Pseudomonas aeruginosa; experiment: Antibacterial activity against Pseudomonas aeruginosa clinical isolate 19-1 assessed as inhibition of bacterial growth incubated for 18 to 24 hrs by broth microdilution method; type: functional; conditions: time 18-24 hrs
[18] = test system: Staphylococcus epidermidis; experiment: Antibacterial activity against methicillin resistant Staphylococcus epidermidis clinical isolate 19-5 assessed as inhibition of bacterial growth incubated for 18 to 24 hrs by broth microdilution method; type: functional; conditions: time 18-24 hrs
[19] = test system: Escherichia coli; experiment: Antibacterial activity against Escherichia coli clinical isolate 19-2 assessed as inhibition of bacterial growth incubated for 18 to 24 hrs by broth microdilution method; type: functional; conditions: time 18-24 hrs

Row | Structure (SMILES) | MIC [1] | MIC [2] | selectivity ratio [3] | MIC [4] | MIC [5] | MIC [6] | MIC [7] | MIC [8] | MIC [9] | MIC [10] | IC50 at 72 h [11] | MIC [12] | MIC [13] | MIC [14] | MIC [15] | MIC [16] | MIC [17] | MIC [18] | MIC [19]
1 | CCCCCCC[C@@H](O)CC(=O)N[C@H](CO)C(=O)N[C@H](CCN)C(=O)N[C@H]1CCNC(=O)[C@H](CC(C)C)NC(=O)[C@H](CCN)NC(=O)[C@H](CCN)NC(=O)[C@H](Cc2ccccc2)NC(=O)[C@@H](CC(C)C)NC(=O)[C@H](CCN)NC1=O | 4 µg/mL (≈ 3.54 µM) | 8 µg/mL (≈ 7.07 µM) | 13.9 | 16 µg/mL (≈ 14.1 µM) | 64 µg/mL (≈ 56.6 µM) | 2 µg/mL (≈ 1.77 µM) | 8 µg/mL (≈ 7.07 µM) | 4 µg/mL (≈ 3.54 µM) | 64 µg/mL (≈ 56.6 µM) | 8 µg/mL (≈ 7.07 µM) | 55.4 µg/mL (≈ 49 µM) | 4 µg/mL (≈ 3.54 µM) | 2 µg/mL (≈ 1.77 µM) | 2 µg/mL (≈ 1.77 µM) | 2 µg/mL (≈ 1.77 µM) | 16 µg/mL (≈ 14.1 µM) | 8 µg/mL (≈ 7.07 µM) | 2 µg/mL (≈ 1.77 µM) | 16 µg/mL (≈ 14.1 µM)
2 | CCCCCCC[C@@H](O)CC(=O)N[C@H](CCN)C(=O)N[C@H]1CCNC(=O)[C@H]([C@@H](C)O)NC(=O)[C@H](CCN)NC(=O)[C@H](CCN)NC(=O)[C@H](CC(C)C)NC(=O)[C@@H](CC(C)C)NC(=O)[C@H](CCN)NC1=O | 4 µg/mL (≈ 4.01 µM) | 64 µg/mL (≈ 64.1 µM) | 51.5 | 16 µg/mL (≈ 16 µM) | > 64 µg/mL | 2 µg/mL (≈ 2 µM) | 64 µg/mL (≈ 64.1 µM) | 16 µg/mL (≈ 16 µM) | > 64 µg/mL | 8 µg/mL (≈ 8.01 µM) | 206 µg/mL (≈ 206 µM) | 8 µg/mL (≈ 8.01 µM) | 1 µg/mL (≈ 1 µM) | 0.5 µg/mL (≈ 0.501 µM) | 0.5 µg/mL (≈ 0.501 µM) | 64 µg/mL (≈ 64.1 µM) | 0.5 µg/mL (≈ 0.501 µM) | 16 µg/mL (≈ 16 µM) | 8 µg/mL (≈ 8.01 µM)
3 | CCCCCCCCCC(=O)N[C@H](CCN)C(=O)N[C@H]1CCNC(=O)[C@H](Cc2ccccc2)NC(=O)[C@H](CCN)NC(=O)[C@H](CCN)NC(=O)[C@H](Cc2ccccc2)NC(=O)[C@@H](CC(C)C)NC(=O)[C@H](CCN)NC1=O | 8 µg/mL (≈ 7.53 µM) | 16 µg/mL (≈ 15.1 µM) | 5.4 | 8 µg/mL (≈ 7.53 µM) | 16 µg/mL (≈ 15.1 µM) | 1 µg/mL (≈ 0.941 µM) | 1 µg/mL (≈ 0.941 µM) | 8 µg/mL (≈ 7.53 µM) | 8 µg/mL (≈ 7.53 µM) | 8 µg/mL (≈ 7.53 µM) | 43.1 µg/mL (≈ 40.6 µM) | 8 µg/mL (≈ 7.53 µM) | 4 µg/mL (≈ 3.77 µM) | 8 µg/mL (≈ 7.53 µM) | 8 µg/mL (≈ 7.53 µM) | 16 µg/mL (≈ 15.1 µM) | 4 µg/mL (≈ 3.77 µM) | 1 µg/mL (≈ 0.941 µM) | 4 µg/mL (≈ 3.77 µM)
4 | CCCCCCCCCC(=O)N[C@H](CCN)C(=O)N[C@H]1CCNC(=O)[C@H]([C@@H](C)O)NC(=O)[C@H](CCN)NC(=O)[C@H](CCN)NC(=O)[C@H](CCCCCCCC)NC(=O)[C@@H](CC(C)C)NC(=O)[C@H](CCN)NC1=O | 1 µg/mL (≈ 0.963 µM) | 4 µg/mL (≈ 3.85 µM) | 9.1 | 2 µg/mL (≈ 1.93 µM) | 8 µg/mL (≈ 7.7 µM) | 2 µg/mL (≈ 1.93 µM) | 2 µg/mL (≈ 1.93 µM) | 2 µg/mL (≈ 1.93 µM) | 8 µg/mL (≈ 7.7 µM) | 2 µg/mL (≈ 1.93 µM) | 9.1 µg/mL (≈ 8.76 µM) | 1 µg/mL (≈ 0.963 µM) | 2 µg/mL (≈ 1.93 µM) | 2 µg/mL (≈ 1.93 µM) | 4 µg/mL (≈ 3.85 µM) | 8 µg/mL (≈ 7.7 µM) | 2 µg/mL (≈ 1.93 µM) | 1 µg/mL (≈ 0.963 µM) | 1 µg/mL (≈ 0.963 µM)
5 | CCCCCCCCCC(=O)N[C@H](CCN)C(=O)N[C@H]1CCNC(=O)[C@H]([C@@H](C)O)NC(=O)[C@H](CCN)NC(=O)[C@H](CCN)NC(=O)[C@H](CC(C)C)NC(=O)[C@@H](Cc2cccc(Cl)c2)NC(=O)[C@H](CCN)NC1=O | 2 µg/mL (≈ 1.9 µM) | 16 µg/mL (≈ 15.2 µM) | 21.3 | 4 µg/mL (≈ 3.81 µM) | 64 µg/mL (≈ 60.9 µM) | 2 µg/mL (≈ 1.9 µM) | 2 µg/mL (≈ 1.9 µM) | 4 µg/mL (≈ 3.81 µM) | 32 µg/mL (≈ 30.5 µM) | 4 µg/mL (≈ 3.81 µM) | 42.5 µg/mL (≈ 40.4 µM) | 1 µg/mL (≈ 0.952 µM) | 2 µg/mL (≈ 1.9 µM) | 32 µg/mL (≈ 30.5 µM) | 32 µg/mL (≈ 30.5 µM) | 16 µg/mL (≈ 15.2 µM) | 2 µg/mL (≈ 1.9 µM) | 2 µg/mL (≈ 1.9 µM) | 2 µg/mL (≈ 1.9 µM)
6 | CCCCCCC[C@@H](O)CC(=O)N[C@H](CCN)C(=O)N[C@H]1CCNC(=O)[C@H]([C@@H](C)O)NC(=O)[C@H](CCN)NC(=O)[C@H](CCN)NC(=O)[C@H](CC(C)C)NC(=O)[C@@H](Cc2ccccc2)NC(=O)[C@H](CCN)NC1=O ({Decanoyl(3R-OH)}-[dDab][Dab][Dab][dF]L[Dab][Dab]T; lactam 2-C) | 1 µg/mL (≈ 0.969 µM) | 32 µg/mL (≈ 31 µM) | 125 | 4 µg/mL (≈ 3.87 µM) | > 64 µg/mL | 0.5 µg/mL (≈ 0.484 µM) | 32 µg/mL (≈ 31 µM) | 2 µg/mL (≈ 1.94 µM) | > 64 µg/mL | 4 µg/mL (≈ 3.87 µM) | 125 µg/mL (≈ 121 µM) | 1 µg/mL (≈ 0.969 µM) | 1 µg/mL (≈ 0.969 µM) | 0.5 µg/mL (≈ 0.484 µM) | 0.5 µg/mL (≈ 0.484 µM) | 32 µg/mL (≈ 31 µM) | 0.5 µg/mL (≈ 0.484 µM) | 8 µg/mL (≈ 7.75 µM) | 2 µg/mL (≈ 1.94 µM)
